In patent US6331551A, “Methods of treating microbial infection and therapeutic formulations therefor” (priority 2000, dated 2001):
≈ marks a conversion by molar mass, not a printed value. Each block holds one molecule with its values, some of them ahead of it.

Columns and labels:
[1] = test system: Agrobacterium tumefaciens; test: Disk zone of inhibition / antibacterial activity; assay type: cell-based; set-up: key to Zone of inhibition: +++: High inhibition; ++: moderate inhibition; +: low inhibition; -: non inhibition; conditions: A. tumefaciens; for MIC: Agrobacterium tumefaciens
Description: (§1) The following seven bacteria were grown on nutrient agar slants for 48 hours at 37° C.: Enterobacter aerogens, Propionibacterium acnes, Pseudomonas aeruginosa, Escherichia coli, Bacillus subtilis, Agrobacterium tumefaciens, and Staphylococcus aureus.
(§2) A bacterial colony from each of the respective slants was suspended in 1 ml sterile deionized water. 0.1 ml of each cell suspension was evenly spread on nutrient agar plates (10×10^5 cells/ml). After 30 min, sclareol and sclareolide-impregnated disks were placed on bacteria-lawned plates. The sclareol and sclareolide used in this experiment were relatively pure samples (greater than 99% pure). Triplicate disks of (10, 100, 500, and 1000 ug/disk) of each sample was applied on to 6 mm diameter (0.3 mm thickness) filter paper disks and air dried. Controls were prepared with respective solvents. Plates were incubated for 24-48 hr at 37° C. The inhibition zones were measured and recorded after 15 hr, up to 48 hr.
(§3) A summary of the effects of sclareol and sclareolide against the bacteria and fungi tested in Examples 1 and 2 is provided in Table 3. The data is presented as the effect of sclareol and sclareolide on selected microbial cultures, in terms of minimum inhibitory concentration, as measured in μg/ml.

[2] = test system: Bacillus subtilis; test: Disk zone of inhibition / antibacterial activity; assay type: cell-based; set-up: key to Zone of inhibition: +++: High inhibition; ++: moderate inhibition; +: low inhibition; -: non inhibition; conditions: for MIC: Bacillus subtilis, B. subtilis; for Zone of inhibition: D. subtilis [sic]
Description: as §1, §2, §3

[3] = test system: Enterobacter aerogens; test: Disk zone of inhibition / antibacterial activity; assay type: cell-based; set-up: key to Zone of inhibition: +++: High inhibition; ++: moderate inhibition; +: low inhibition; -: non inhibition; conditions: E. aerogens; for MIC: Enterobacter
Description: as §1, §2, §3

[4] = test system: Escherichia coli; test: Disk zone of inhibition / antibacterial activity; assay type: cell-based; set-up: key to Zone of inhibition: +++: High inhibition; ++: moderate inhibition; +: low inhibition; -: non inhibition; conditions: E. coli; for MIC: Escherichia coli
Description: as §1, §2, §3

[5] = test system: Propionibacterium acnes; test: Disk zone of inhibition / antibacterial activity; assay type: cell-based; set-up: key to Zone of inhibition: +++: High inhibition; ++: moderate inhibition; +: low inhibition; -: non inhibition; conditions: P. acnes; for MIC: Cutibacterium acnes
Description: as §1, §2, §3

[6] = test system: Pseudomonas aeruginosa; test: Disk zone of inhibition / antibacterial activity; assay type: cell-based; set-up: key to Zone of inhibition: +++: High inhibition; ++: moderate inhibition; +: low inhibition; -: non inhibition; conditions: P. aeruginosa; for MIC: Pseudomonas aeruginosa
Description: as §1, §2, §3

[7] = test system: Staphylococcus aureus; test: Disk zone of inhibition / antibacterial activity; assay type: cell-based; set-up: key to Zone of inhibition: +++: High inhibition; ++: moderate inhibition; +: low inhibition; -: non inhibition; conditions: S. aureus; for MIC: Staphylococcus aureus
Description: as §1, §2, §3

[8] = test system: Aspergillus flavus; test: Antifungal MIC on potato dextrose agar; assay type: cell-based; conditions: PDA, 26° C., 48 hr up to one week
Description: (§4) The yeast and fungi listed below in Table 2 were grown on potato dextrose agar (PDA) containing different concentrations of sclareol and sclareolide, according to the following method: sclareol or sclareolide (in powder form) was added to pre-measured amounts of PDA medium in petri plates, mixed thoroughly by tilting the petri plate from side to side, and allowed to solidify. The sclareol and […] in preparing the petri plates was of greater than 99% purity. After solidification, the plates were inoculated with 5 mm disks, cut from the outer margin of the actively growing cultures of yeast and fungi and placed in the center of the plate in an inverted position in direct contact with the sclareol/sclareolide impregnated medium. The plates were incubated at 26° C. The plates were monitored periodically to estimate the minimum inhibitory concentration (MIC) based on the growth proliferation from the 5 mm inoculum disk. The results were measured and recorded after 48 hr, up to one week. A summary of the effects of sclareol and sclareolide against the bacteria and fungi tested in Examples 1 and 2 is provided in Table 3. The data is presented as the effect of sclareol and sclareolide on selected microbial cultures, in terms of minimum inhibitory concentration, as measured in μg/ml.

[9] = test system: Candida kefyr; test: Antifungal MIC on potato dextrose agar; assay type: cell-based; conditions: Kluyveromyces marxianus, PDA, 26° C., 48 hr up to one week
Description: as §4

[10] = test system: Penicillium notatum; test: Antifungal MIC on potato dextrose agar; assay type: cell-based; conditions: Penicillium chrysogenum, PDA, 26° C., 48 hr up to one week
Description: as §4

[11] = test system: Saccharomyces cerevisiae; test: Antifungal MIC on potato dextrose agar; assay type: cell-based; conditions: PDA, 26° C., 48 hr up to one week
Description: as §4

[12] = test system: Gram positive bacteria, specifically, S. aureus and P. acnes; test: Disk antibacterial test, Gram positive bacteria; assay type: cell-based
Description: as §1, §2

[13] = test system: bacteria tested; test: Disk antibacterial test, overall; assay type: cell-based; conditions: in general
Description: as §1, §2

[14] = test system: gram negative acne; conditions: oral, subsequent to oral tetracycline or erythromycin; Poli et al. 1988; cited from earlier work

MIC [1]: 10 µg/mL (≈ 39.9 µM)
MIC [2]: 10 µg/mL (≈ 39.9 µM)
MIC [3]: 10 µg/mL (≈ 39.9 µM)
MIC [4]: 500 µg/mL (≈ 2000 µM)
MIC [5]: 40 µg/mL (≈ 160 µM)
MIC [6]: 500 µg/mL (≈ 2000 µM)
MIC [7]: 50 µg/mL (≈ 200 µM)
MIC [8]: 1000 µg/mL (≈ 3990 µM)
MIC [9]: 400 µg/mL (≈ 1600 µM)
MIC [10]: 1000 µg/mL (≈ 3990 µM)
MIC [11]: 500 µg/mL (≈ 2000 µM)
Compound: CC1(C)CCCC2(C)C1CCC1(C)OC(=O)CC12 (single isomer, unassigned) [Sclareolide, sclareolide]
Zone of inhibition ([1]; 10 ug/disk): +
Zone of inhibition ([1]; 100 ug/disk): ++
Zone of inhibition ([1]; 500 ug/disk): +++
Zone of inhibition ([1]; 1000 ug/disk): +++
Zone of inhibition ([2]; 10 ug/disk): +
Zone of inhibition ([2]; 100 ug/disk): +
Zone of inhibition ([2]; 500 ug/disk): +
Zone of inhibition ([2]; 1000 ug/disk): ++
sensitivity to treatment [3]: more sensitive
Zone of inhibition ([3]; 10 ug/disk): +
Zone of inhibition ([3]; 100 ug/disk): ++
Zone of inhibition ([3]; 500 ug/disk): +++
Zone of inhibition ([3]; 1000 ug/disk): +++
sensitivity to treatment [4]: least sensitive
Zone of inhibition ([4]; 10 ug/disk): -
Zone of inhibition ([4]; 100 ug/disk): -
Zone of inhibition ([4]; 500 ug/disk): +
Zone of inhibition ([4]; 1000 ug/disk): ++
sensitivity to treatment [5]: more sensitive
Zone of inhibition ([5]; 10 ug/disk): +
Zone of inhibition ([5]; 100 ug/disk): +++
Zone of inhibition ([5]; 500 ug/disk): +++
Zone of inhibition ([5]; 1000 ug/disk): +++
sensitivity to treatment [6]: least sensitive
Zone of inhibition ([6]; 10 ug/disk): -
Zone of inhibition ([6]; 100 ug/disk): -
Zone of inhibition ([6]; 500 ug/disk): ++
Zone of inhibition ([6]; 1000 ug/disk): ++
sensitivity to treatment [7]: more sensitive
Zone of inhibition ([7]; 10 ug/disk): +
Zone of inhibition ([7]; 100 ug/disk): ++
Zone of inhibition ([7]; 500 ug/disk): +++
Zone of inhibition ([7]; 1000 ug/disk): +++
activity against Gram positive bacteria [12]: more active against Gram positive bacteria

Compound: C=C[C@](C)(O)CC[C@@H]1[C@@]2(C)CCCC(C)(C)[C@@H]2CC[C@@]1(C)O [Sclareol, sclareol]
Zone of inhibition ([1]; 10 ug/disk): +
Zone of inhibition ([1]; 100 ug/disk): ++
Zone of inhibition ([1]; 500 ug/disk): +++
Zone of inhibition ([1]; 1000 ug/disk): +++
MIC [1]: 10 µg/mL (≈ 32.4 µM)
MIC [2]: 10 µg/mL (≈ 32.4 µM)
Zone of inhibition ([2]; 10 ug/disk): +
Zone of inhibition ([2]; 100 ug/disk): +
Zone of inhibition ([2]; 500 ug/disk): ++
Zone of inhibition ([2]; 1000 ug/disk): ++
sensitivity to treatment [3]: more sensitive
Zone of inhibition ([3]; 10 ug/disk): +
Zone of inhibition ([3]; 100 ug/disk): +++
Zone of inhibition ([3]; 500 ug/disk): +++
Zone of inhibition ([3]; 1000 ug/disk): +++
MIC [3]: 10 µg/mL (≈ 32.4 µM)
sensitivity to treatment [4]: least sensitive
Zone of inhibition ([4]; 10 ug/disk): -
Zone of inhibition ([4]; 100 ug/disk): -
Zone of inhibition ([4]; 500 ug/disk): +
Zone of inhibition ([4]; 1000 ug/disk): ++
MIC [4]: 500 µg/mL (≈ 1620 µM)
MIC [5]: 40 µg/mL (≈ 130 µM)
sensitivity to treatment [5]: more sensitive
Zone of inhibition ([5]; 10 ug/disk): +
Zone of inhibition ([5]; 100 ug/disk): +++
Zone of inhibition ([5]; 500 ug/disk): +++
Zone of inhibition ([5]; 1000 ug/disk): +++
sensitivity to treatment [6]: least sensitive
Zone of inhibition ([6]; 10 ug/disk): -
Zone of inhibition ([6]; 100 ug/disk): +
Zone of inhibition ([6]; 500 ug/disk): ++
Zone of inhibition ([6]; 1000 ug/disk): ++
MIC [6]: 100 µg/mL (≈ 324 µM)
sensitivity to treatment [7]: more sensitive
Zone of inhibition ([7]; 10 ug/disk): +
Zone of inhibition ([7]; 100 ug/disk): ++
Zone of inhibition ([7]; 500 ug/disk): +++
Zone of inhibition ([7]; 1000 ug/disk): +++
MIC [7]: 50 µg/mL (≈ 162 µM)
MIC [8]: 1000 µg/mL (≈ 3240 µM)
MIC [9]: 100 µg/mL (≈ 324 µM)
MIC [10]: 1000 µg/mL (≈ 3240 µM)
MIC [11]: 500 µg/mL (≈ 1620 µM)
relative activity against the bacteria tested [13]: more active than sclareolide
activity against Gram positive bacteria [12]: more active against Gram positive bacteria

Compound: CC1(C)S[C@@H]2[C@H](NC(=O)[C@H](N)c3ccc(O)cc3)C(=O)N2[C@H]1C(=O)O [amoxicillin]
effectiveness in treating gram negative acne [14]: effective

Compound: CC1(C)S[C@@H]2[C@H](NC(=O)[C@H](N)c3ccccc3)C(=O)N2[C@H]1C(=O)O [ampicillin]
effectiveness in treating gram negative acne [14]: effective
